# Assay results published in the supplement of paper PMC10307832.
# How the values were obtained:
# Experiment in all cases: relative viability (nuclei count vs DMSO), 5 days (fraction); higher = more cells survive
# [1] = compound: C=CC(=O)Nc1cc(-n2c(=O)ccc3cnc4ccc(-c5ccc(NS(C)(=O)=O)cc5)cc4c32)ccc1C [BMX-IN-1] + NC(=O)Nc1cc(-c2cccc(F)c2)sc1C(=O)N[C@H]1CCCNC1 [AZD7762] (partner 0.2 µM)
# In short: (§1)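 The day after seeding in 1536-well plates, lung cancer cell lines were treated by pin tool with a single drug, or with a fixed anchor-drug dose together with five library-drug doses (not always all listed) in √10 steps. After 5 days, a combined fix-and-stain solution (final 0.05% Triton X-100, 1% formaldehyde, 1 ug/ml Hoechst) was added. Nuclei counted on 4× images gave relative viability as treated counts over vehicle counts, reported as the median of duplicate plates.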
# [2] = compound: C=CCc1cccc(/C=N/NC(=O)CN2CCN(Cc3ccccc3)CC2)c1O [PAC-1] + COc1cc2c(Oc3ccc(NC(=O)C4(C(=O)Nc5ccc(F)cc5)CC4)cc3F)ccnc2cc1OCCCN1CCOCC1 [Foretinib] (partner 0.25 µM)
# In short: as §1
# [3] = compound: C=CCc1cccc(/C=N/NC(=O)CN2CCN(Cc3ccccc3)CC2)c1O [PAC-1] + Cc1nc(Nc2ncc(C(=O)Nc3c(C)cccc3Cl)s2)cc(N2CCN(CCO)CC2)n1 [Dasatinib] (partner 0.075 µM)
# In short: as §1
# [4] = compound: C=CC(=O)N1CCC[C@@H](n2nc(-c3ccc(Oc4ccccc4)cc3)c3c(N)ncnc32)C1 [Ibrutinib] + Nc1nc2[nH]cc(CCc3ccc(C(=O)N[C@@H](CCC(=O)O)C(=O)O)cc3)c2c(=O)[nH]1 [Pemetrexed] (partner 0.2 µM)
# In short: as §1
Cell Line,relative viability ([1]; first compound 0.2 µM),relative viability ([1]; first compound 0.6325 µM),relative viability ([1]; first compound 2 µM),relative viability ([2]; first compound 0.02 µM),relative viability ([2]; first compound 0.06325 µM),relative viability ([2]; first compound 0.2 µM),relative viability ([2]; first compound 2 µM),relative viability ([3]; first compound 0.02 µM),relative viability ([3]; first compound 0.06325 µM),relative viability ([3]; first compound 0.2 µM),relative viability ([3]; first compound 2 µM),relative viability ([4]; first compound 0.005 µM),relative viability ([4]; first compound 0.01581 µM),relative viability ([4]; first compound 0.05 µM),relative viability ([4]; first compound 0.1581 µM),relative viability ([4]; first compound 0.5 µM),relative viability ([1]; first compound 0.02 µM)
LOU-NH91,0.806,0.865,0.753,0.919,0.931,0.982,0.898,0.505,0.551,0.541,0.599,0.426,0.404,0.449,0.377,0.543,–
HCC-366,0.417,0.416,0.343,0.903,0.925,0.899,0.989,0.618,0.558,0.617,0.733,0.259,0.247,0.307,0.241,0.704,0.38
CAL-12T,0.76,0.647,0.613,1.15,1.1,0.978,1.08,0.288,0.393,0.459,0.404,1.26,1.19,1.12,1.26,1.27,0.665
NCI-H1355,0.85,0.838,0.755,0.921,0.983,0.936,1.04,0.75,0.722,0.667,0.711,–,0.944,0.987,1.06,0.951,0.872
ABC-1,0.848,0.82,0.868,0.991,1.19,1,1.01,0.501,0.495,0.541,0.484,–,–,–,–,–,0.761
NCI-H2405,0.941,0.762,0.805,1.04,1.04,1.02,1.1,0.173,0.221,0.207,0.176,1.01,0.97,–,–,1.06,0.831
NCI-H1648,0.758,0.747,0.67,–,–,–,–,–,–,–,–,0.796,0.655,0.569,0.961,0.751,0.498
NCI-H650,1.29,0.921,0.904,1.08,1.07,0.992,0.988,0.426,0.455,0.406,0.45,1.03,0.881,0.885,1.15,1.1,0.978
NCI-H2228,–,–,–,0.903,0.862,0.888,0.786,0.506,0.505,0.537,0.501,0.33,0.345,0.328,0.397,0.445,–
EPLC-272H,0.217,0.476,0.202,0.605,0.683,0.68,0.721,0.447,0.365,0.387,0.268,0.317,0.325,0.412,0.268,0.344,0.231
